pEC50: −log10 of the molar value.
How the values were obtained:
Type in all cases: cell-based, influenza virus
[1] = system: IFVA/Weiss/43; assay: cytopathic effect (CPE) antiviral test in MDCK cells, IFVA/Weiss/43; conditions: unidentified influenza virus, MDCK, 120 h, read-out: EC50(IFVA/Weiss/43), MDCK cells, CPE method, CCK-8 cell viability, 5 days
[2] = system: IFV A/PR/8/34; assay: cytopathic effect (CPE) antiviral test in MDCK cells, IFV A/PR/8/34; conditions: unidentified influenza virus, PR/8, MDCK, 120 h, read-out: EC50(IFV A/PR/8/34)
[3] = system: IFVA/Mal/302/54; assay: cytopathic effect (CPE) antiviral test in MDCK cells, IFVA/Mal/302/54; conditions: unidentified influenza virus, MDCK, 120 h, read-out: EC50(IFVA/Mal/302/54), MDCK cells, CPE method, CCK-8 cell viability, 5 days

Row | SMILES | pEC50 [1] | pEC50 [2] | pEC50 [3]
1 | [2H]C([2H])([2H])C(C(=O)Nc1ccc2oc(-c3ccnc(C(=O)N4CCN(C(c5ccccc5)c5nnn(C(F)F)n5)CC4)c3)nc2c1)C([2H])([2H])[2H] (racemic) [Compound 109, (R/S)—N-(2-(2-(4-((2-(difluoromethyl)-2H-tetrazol-5-yl)(phenyl)methyl)piperazine-1-carbonyl)pyridin-4-yl)benzo[d]oxazol-5-yl)-2-(methyl-d3)propanamide] | 8.22 | 7.92 | 7.96
2 | O=C(c1cc(-c2nc3cc(-c4cnccn4)ccc3o2)ccn1)N1CCN(C(c2ccccc2)c2nnn(C(F)F)n2)CC1 (racemic) [Compound 112, (R/S)-(4-((2-(difluoromethyl)-2H-tetrazol-5-yl)(phenyl)methyl)piperazin-1-yl)(4-(5-(pyrazin-2-yl)benzo[d]oxazol-2-yl)pyridin-2-yl)methanone] | 7.96 | 7.44 | 8.10
3 | CC(=O)N(C)c1ccc2oc(-c3ccnc(C(=O)N4CCN(C(c5ccccc5)c5nnn(C(F)F)n5)CC4)c3)nc2c1 (racemic) [Compound 113, (R/S)—N-(2-(2-(4-((2-(difluoromethyl)-2H-tetrazol-5-yl)(phenyl)methyl)piperazine-1-carbonyl)pyridin-4-yl)benzo[d]oxazol-5-yl)-N-methylacetamide] | 7.72 | 7.70 | 7.74
4 | [2H]C([2H])([2H])C(=O)Nc1ccc2oc(-c3ccnc(C(=O)N4CCN(C(c5ccccc5)c5nnn(C(F)F)n5)CC4)c3)nc2c1 (racemic) [Compound 114, (R/S)—N-(2-(2-(4-((2-(difluoromethyl)-2H-tetrazol-5-yl)(phenyl)methyl)piperazine-1-carbonyl)pyridin-4-yl)benzo[d]oxazol-5-yl) Deuterated Acetamide] | 7.72 | 7.60 | 8.00
5 | O=C(c1cc(-c2nc3cc(-c4nccs4)ccc3o2)ccn1)N1CCN(C(c2ccccc2)c2nnn(C(F)F)n2)CC1 (racemic) [Compound 119, (R/S)-(4-((2-(difluoromethyl)-2H-tetrazol-5-yl)(phenyl)methyl)piperazin-1-yl)(4-(5-(thiazol-2-yl)benzo[d]oxazol-2-yl)pyridin-2-yl)methanone] | 8.70 | 7.66 | 8.22
6 | O=C(Nc1ccc2oc(-c3ccnc(C(=O)N4CCN(C(c5ccccc5)c5nnn(C(F)F)n5)CC4)c3)nc2c1)C1CC1 (stereo not drawn) [Compound 36, N-(2-(2-(4-((2-(difluoromethyl)-2H-tetrazol-5-yl)(phenyl)methyl)piperazine-1-carbonyl)pyridin-4-yl)benzo[d]oxazol-5-yl)cyclopropanecarboxamide] | 8.40 | 7.77 | 8.00
7 | Cn1ccnc1-c1ccc2oc(-c3ccnc(C(=O)N4CCN(C(c5ccccc5)c5nnn(C(F)F)n5)CC4)c3)nc2c1 (stereo not drawn) [Compound 72, (4-((2-(difluoromethyl)-2H-tetrazol-5-yl)(phenyl)methyl)piperazin-1-yl)(4-(5-(1-methyl-1H-imidazol-2-yl)benzo[d]oxazol-2-yl)pyridin-2-yl)methanone] | 8.40 | 8.40 | 8.40
8 | O=C(Nc1ccc2oc(-c3ccnc(C(=O)N4CCN([C@H](c5ccccc5)c5nnn(C(F)F)n5)CC4)c3)nc2c1)[C@@H]1CC1(F)F [Compound 73, (S)—N-(2-(2-(4-((R)-(2-(difluoromethyl)-2H-tetrazol-5-yl)(phenyl)methyl)piperazine-1-carbonyl)pyridin-4-yl)benzo[d]oxazol-5-yl)-2,2-difluorocyclopropane-1-carboxamide] | 8.70 | 8.52 | 8.22
9 | O=C(Nc1ccc2oc(-c3ccnc(C(=O)N4CCN([C@H](c5ccccc5)c5nnn(C(F)F)n5)CC4)c3)nc2c1)[C@@H]1C[C@@H]1F [Compound 75, (1S,2S)—N-(2-(2-(4-((R)-(2-(difluoromethyl)-2H-tetrazol-5-yl)(phenyl)methyl)piperazine-1-carbonyl)pyridin-4-yl)benzo[d]oxazol-5-yl)-2-fluorocyclopropane-1-carboxamide] | 8.70 | 8.70 | 8.22
10 | Cc1nnn(C(c2ccccc2)C2CCN(C(=O)c3cc(-c4nc5cc(NC(=O)[C@@H]6C[C@@H]6F)ccc5o4)ccn3)CC2)n1 (stereo partly drawn) [Compound 85, (1S,2S)-2-fluoro-N-(2-(2-(4-((5-methyl-2H-tetrazol-2-yl)(phenyl)methyl)piperidine-1-carbonyl)pyridin-4-yl)benzo[d]oxazol-5-yl)cyclopropanecarboxamide] | 8.40 | 8.40 | 8.40

Source: patent US20230079045A1 (priority 2019, published 2023)
